From US9273095B2, “Antibiotic peptide and preparation method therefor and application therefor” (priority 2011, dated 2016)
≈ marks a conversion by molar mass, not a printed value. Like-named read-outs stand apart in the source and are kept apart here. Non-standard residues stand in square brackets, D forms with d. Residues, ends and D or L forms follow the SMILES beside them.

Columns and labels:
Enterococcus faecium = experiment: microbe, parasite or virus in culture; format: cell-based
Description: (§1) The experimental strains are 37 standard strains preserved in lab and clinical isolated bacteria, including drug-resistant bacteria and quality-control bacteria selecting Staphylococcus aureus ATCC29213, Enterococcus faecalis ATCC29212, Escherichia coli ATCC25922, Pseudomonas aeruginosa ATCC27853 and klebsiella pneumoniae ATCC700603.
(§2) (1) Sensitivity test is conducted with two-fold agar dilution method and Denlay multipoint inoculator. Test bacteria are cultured with nutrient broth and brain heart infusion.
(§3) (2) The drug is double diluted into different concentration with MH broth after dissolved and then placed in the plate respectively.
(§4) (4) After solidification of the culture medium in the plate, test bacteria (10^4CFU/point) are inoculated by multipoint inoculator and cultured for 18 hours at constant 35° C. Then observe the results.

Enterobacter aerogenes = experiment: microbe, parasite or virus in culture; format: cell-based
Description: as §1, §2, §3
(§5) (3) After dissolved, MH agar culture medium are injected into the plate with drug quantitatively and mixed to make the final concentration of drug are 0.03, 0.06, 0.125, . . . , 128 μg/ml respectively.
as §4

Enterobacter cloacae = experiment: microbe, parasite or virus in culture; format: cell-based
Description: as §1, §2, §3, §5, §4

[1] = system: Acinetobacter calcoaceticus; experiment: microbe, parasite or virus in culture; format: cell-based
Description: as §1, §2, §3, §5, §4

Salmonella typhimurium = experiment: microbe, parasite or virus in culture; format: cell-based
Description: as §1, §2, §3, §5, §4

Feilaoti citrobacter = experiment: microbe, parasite or virus in culture; format: cell-based
Description: as §1, §2, §3, §5, §4

Proteus vulgaris = experiment: microbe, parasite or virus in culture; format: cell-based
Description: as §1, §2, §3, §5, §4

Serratia marcescens = experiment: microbe, parasite or virus in culture; format: cell-based
Description: as §1, §2, §3, §5, §4

[2] = Circular dichroism (CD) spectroscopy, helical structure; format: physicochemical; conditions: for 50% TFE % helix / Benign buffer % helix: relative to ellipticity (100%) of reference peptide in 50% TFE; for Benign buffer [θ]222 / 50% TFE [θ]222: mean residue molar ellipticity at 222 nm, 25° C.; for Benign buffer [θ]222: 100 mM KCl, 50 mM PO4, pH 7.0; for 50% TFE [θ]222: buffer containing 50% TFE
Description: The mean residue molar ellipticities of peptides are determined by circular dichroism (CD) spectroscopy, using a Jasco J-720 spectropolarimeter (Jasco, Easton, Md.), at 25° C. under benign conditions (50 mM KH2PO4/K2HPO4/100 mM KCl, pH7), as well as in the presence of an α-helix inducing solvent, 2,2,2-trifluoroethanol (TFE) (50 mM KH2PO4/K2HPO4/100 mM KCL, pH 7 buffer/50% TFE). A 10-fold dilution of a 500 μM stock solution of the peptide is loaded into a 0.02 cm fused silica cell and its mean residue molar ellipticity scanned from 190 to 250 nm. The values of mean residue molar ellipticities of the peptide at a wavelength of 222 nm are used to estimate the relative amount of α-helicity of the peptides.
To determine the secondary structure of peptides in different environments, circular dichroism (CD) spectra of the peptide analogs are measured under physiologically related pH and ionic strength (100 mM KCl, 50 mM aq. PO4, pH 7 referred to as benign conditions) and also in 50% TFE to mimic the hydrophobic environment of the membrane. CD spectra of the peptide analogs are measured under benign conditions (100 mM KCl, 50 mM KH2PO4/K2HPO4, pH 7, referred to as KP buffer) and also in 50% trifluoroethanol (TFE) to mimic the hydrophobic environment of the membrane. […] However, in the presence of 50% TFE, all three L-peptides are fully folded α-helical structures with similar molar ellipticities and helicity.
FIG. 2 illustrates graphical results of Circular dichroism (CD) spectra of peptides at pH 7.4 and 25° C., in 50 mM aq. PO4 containing 100 mM KCl, wherein KP buffer (50 mM KH2PO4, K2HPO4, 100 mM KCl, pH 7.4) mimics hydrophilic environment and KP buffer-TFE (1:1 [vol/vol]) mimics hydrophobic environment of cell membrane. The figure above represents the CD spectra of peptides in benign buffer without TFE, whilst the figure below represents CD spectra obtained in the presence of 50% TFE.

[3] = 06-12 (VREF) Vancomycin-resistant enterococci
[4] = Acinetobacter calcoaceticus25001

Compound	MIC (Enterococcus faecium; [3])	MIC (Enterococcus faecium; Enterococcus faecium 06-1)	MIC (Enterobacter aerogenes; Enterobacter aerogenes 45102)	MIC (Enterobacter cloacae; Enterobacter cloacae 45301)	MIC [1, 4]	MIC (Salmonella typhimurium; Salmonella typhimurium)	MIC (Feilaoti citrobacter; Feilaoti citrobacter 48001)	MIC (Proteus vulgaris; Proteus vulgaris 56)	MIC (Serratia marcescens; Serratia marcescens 41002)	50% TFE % helix [2]	Benign buffer % helix [2]	Benign buffer [θ]222 [2]	50% TFE [θ]222 [2]	MIC (Enterobacter aerogenes)	MIC (Enterobacter cloacae)	MIC [1]	MIC (Salmonella typhimurium; murium)	MIC (Feilaoti citrobacter)	MIC (Proteus vulgaris)	MIC (Serratia marcescens)	also measured
CC[C@@H](C)[C@@H](NC(=O)[C@@H](CCCCN)NC(=O)[C@@H](CO)NC(=O)[C@@H](Cc1ccccc1)NC(=O)[C@@H](CC(C)C)NC(=O)[C@@H](CCCCN)NC(=O)[C@@H](CCC(=O)O)NC(=O)[C@@H](CC(C)C)NC(=O)[C@@H](CCCNC(=N)N)NC(=O)[C@@H](CCCCN)NC(=O)[C@@H](Cc1ccccc1)NC(C)=O)C(=O)N[C@H](Cc1c[nH]c2ccccc12)C(=O)N[C@H](CC(N)=O)C(=O)N[C@H](Cc1c[nH]c2ccccc12)C(=O)N[C@H](CCCCN)C(N)=O [PL-17] (Ac-[dF][dK][dR][dL][dE][dK][dL][dF][dS][dK][dI][dW][dN][dW][dK]-NH2)	1.7 µM (≈ 3.51 µg/mL)	10.7 µM (≈ 22.1 µg/mL)	1.3 µM (≈ 2.68 µg/mL)	1.3 µM (≈ 2.68 µg/mL)	1.3 µM (≈ 2.68 µg/mL)	1.3 µM (≈ 2.68 µg/mL)	2.7 µM (≈ 5.57 µg/mL)	5.3 µM (≈ 10.9 µg/mL)	1.3 µM (≈ 2.68 µg/mL)												
Ac-FKKLKKLFSKLWNWK-NH2 [PL-13]	5.3 µM	5.3 µM								80.7%	8.3%	−2350 deg · cm^2 · dmol^−1	−22750 deg · cm^2 · dmol^−1	2.7 µM	1.3 µM	.3 µM	1.3 µM	1.3 µM	0.3 µM	0.3 µM	
C[C@H]1COc2c(N3CCN(C)CC3)c(F)cc3c(=O)c(C(=O)O)cn1c23 [Levofloxacin, levofloxacin, reference compound]		2.40 µM (≈ 0.867 µg/mL)		0.1 µM (≈ 0.0361 µg/mL)			0.1 µM (≈ 0.0361 µg/mL)	< 0.007 µM	0.1 µM (≈ 0.0361 µg/mL)												MIC (Enterococcus faecium; Enterococcus faecium, 06-12 (VREF) Vancomycin-resistant enterococci): 2.4 µM (≈ 0.867 µg/mL); MIC (Enterobacter aerogenes; Klebsiella aerogenes, Enterobacter aerogenes 45102): < 0.02 µM; MIC ([1]; Acinetobacter calcoaceticus, Acinetobacter calcoaceticus25001): 0.1 µM (≈ 0.0361 µg/mL); MIC (Salmonella typhimurium; Salmonella enterica, Salmonella typhimurium): < 0.02 µM
Ac-FKRLEKLFSKIWNWK-NH2 [PL-12]	1.3 µM	5.3 µM	0.03 µM	0.3 µM	0.03 µM	5.3 µM	5.3 µM	0.3 µM	0.03 µM	93.8%	11.9%	−3350 deg · cm^2 · dmol^−1	−26450 deg · cm^2 · dmol^−1								secondary structure by CD (in words) ([2]; KP buffer (benign)): only partially helical
CC(=O)N[C@H](Cc1ccccc1)C(=O)N[C@H](CCCCN)C(=O)N[C@H](CCCCN)C(=O)N[C@H](CC(C)C)C(=O)N[C@H](CCCCN)C(=O)N[C@H](CCCCN)C(=O)N[C@H](CC(C)C)C(=O)N[C@H](Cc1ccccc1)C(=O)N[C@H](CO)C(=O)N[C@H](CCCCN)C(=O)N[C@H](CC(C)C)C(=O)N[C@H](Cc1c[nH]c2ccccc12)C(=O)N[C@H](CC(N)=O)C(=O)N[C@H](Cc1c[nH]c2ccccc12)C(=O)N[C@H](CCCCN)C(N)=O [PL-18] (Ac-[dF][dK][dK][dL][dK][dK][dL][dF][dS][dK][dL][dW][dN][dW][dK]-NH2)	5.3 µM (≈ 10.8 µg/mL)	5.3 µM (≈ 10.8 µg/mL)								80.5%	8.2%	2300 deg · cm^2 · dmol^−1		0.04 µM (≈ 0.0814 µg/mL)	0.04 µM (≈ 0.0814 µg/mL)	1.7 µM (≈ 3.46 µg/mL)	0.3 µM (≈ 0.611 µg/mL)	0.3 µM (≈ 0.611 µg/mL)	5.3 µM (≈ 10.8 µg/mL)	0.04 µM (≈ 0.0814 µg/mL)	
CC(=O)N[C@H](Cc1ccccc1)C(=O)N[C@H](CCCCN)C(=O)N[C@H](CCCCN)C(=O)N[C@H](Cc1ccccc1)C(=O)N[C@H](CCCCN)C(=O)N[C@H](CCCCN)C(=O)N[C@H](CC(C)C)C(=O)N[C@H](CC(C)C)C(=O)N[C@H](CO)C(=O)N[C@H](CCCCN)C(=O)N[C@H](CC(C)C)C(=O)N[C@H](Cc1c[nH]c2ccccc12)C(=O)N[C@H](CC(N)=O)C(=O)N[C@H](Cc1c[nH]c2ccccc12)C(=O)N[C@H](CCCCN)C(N)=O [PL-43] (Ac-[dF][dK][dK][dF][dK][dK][dL][dL][dS][dK][dL][dW][dN][dW][dK]-NH2; N-terminus and C-terminus assumed)										96.3%	14.0%			0.003 µM (≈ 0.00611 µg/mL)	0.03 µM (≈ 0.0611 µg/mL)	0.3 µM (≈ 0.611 µg/mL)	0.3 µM (≈ 0.611 µg/mL)	0.3 µM (≈ 0.611 µg/mL)	0.3 µM (≈ 0.611 µg/mL)	0.3 µM (≈ 0.611 µg/mL)	
